Assays:
[1] = Inhibition of soft agar colony formation in H-Ras transformed cells; assay type: functional, cell-based
[2] = target: T1, Protein farnesyltransferase (Homo sapiens, UniProt P49354+P49356); test: Inhibition of [3H]FPP incorporation into H-ras CVLS by Farnesyltransferase; assay type: protein-complex assay
[3] = Area under the curve in rats by administering perorally; assay type: ADME; conditions: rat, in vivo, po
[4] = target: T1, Protein farnesyltransferase; test: Percent inhibition of [3H]FPP incorporation into H-ras CVLS by Farnesyltransferase at 17; assay type: protein-complex assay; conditions: concentration not given here
[5] = Oral bioavailability in rat; assay type: ADME, organism-based; conditions: in vivo
[6] = Inhibition of COS cell proliferation; assay type: functional, cell-based
[7] = Inhibition of H-Ras transformed NIH3T3 cell proliferation; assay type: functional, cell-based

Row | SMILES | IC50 [1] [µM] | AUC [3] [µg/h/mL] | other results
1 | NC(=O)N1CCC(CC(=O)N2CCC([C@@H]3c4ncc(Br)cc4C=Cc4cc(Cl)cc(Br)c43)CC2)CC1 |  | 7 | 
2 | O=C(Cc1cc[n+]([O-])cc1)N1CCC([C@H]2c3ncc(Br)cc3C=Cc3cc(Cl)cc(Br)c32)CC1 |  |  | inhibition [4]: 44%
3 | NC(=O)N1CCC(CC(=O)N2CCC([C@H]3c4ncc(Br)cc4CCc4cc(Cl)cc(Br)c43)CC2)CC1 [LONAFARNIB] | 0.07 | 24.1 | bioavailability [5]: 76%; IC50 [6]: 0.01 µM; IC50 [7]: 72 µM

Continued, in another order:

Row | IC50 [1] [µM] | AUC [3] [µg/h/mL] | SMILES | other results
4 | 0.03 | 15.5 | O=C(Cc1cc[n+]([O-])cc1)N1CCC([C@@H]2c3ncc(Br)cc3C=Cc3cc(Cl)cc(Br)c32)CC1 | IC50 [2]: 0.00032 µM
5 | > 0.5 | 45.4 | CS(=O)(=O)N1CCC([C@@H]2c3ncc(Br)cc3C=Cc3cc(Cl)cc(Br)c32)CC1 | 
